Source: US8383618B2, “C2-fluoro substituted piperazine linked pyrrolo[2,1-C][1,4] benzodiazepine dimers and a process for the preparation thereof” (Council of Scientific & Industrial Research, priority 2008, dated 2013)

Key:
[1] = system: calf thymus (CT) DNA; assay: Thermal denaturation studies; type: binding; details: [PBD]:[DNA] molar ratio 1:5; CT-DNA 100 μM, ligand 20 μM; sodium phosphate buffer pH 7.00
Method: The DNA binding affinity of the C2-Fluoro substituted piperazine linked pyrrolo[2,1c][1,4]benzodiazepine dimers were subjected to thermal denaturation studies using calf thymus (CT) DNA (Jones, G. B.; Davey, C. L.; Jenkins, T. C.; Kamal, A.; Kneale, G. G.; Neidle, S.; Webster, G. D.; Thurston, D. E. Anti-cancer Drug Des. 1990, 5, 249. McConnaughie, A. W.; Jenkins, T. C. J. Med. Chem. 1995, 38, 3488). The studies for these compounds (IXa-f) were carried out by DNA/ligand molar ratio is 1:5 the increase in the helix melting temperature (ΔTm) for each compound was examined at 0 h. […] Data for DSB-120 and SJG-136 are included in Table-3 for comparison. The synthetic DC-81 dimer (DSB-120) gives a ΔTm 10.2° C. and SJC-136 gives a […]Tm of 25° C. under identical experimental condition.

[2] = system: sixty human tumor cells derived from nine cancer types; assay: NCI in vitro anticancer screen (SRB), whole panel; type: cell-based
Method: (§1) The above compounds were evaluated for in vitro anticancer activity against sixty human tumor cells derived from nine cancer types (leukemia, non small cell cancer, colon cancer CNS cancer, melanoma, ovarian cancer renal cancer, prostate cancer and breast cancer) as per NCI protocol. For each compound, dose response curves for each cell line were measured at a minimum of five concentrations at 10-fold dilution. A protocol of 48 h continuous drug exposure was used, and a sulforhodamine B (SRB) protein assay was used to estimate cell viability or growth. The concentration causing 50% cell growth inhibition (GI50), total cell growth inhibition (TGI, 0% growth) and 50% cell death (LC-50% growth) compared with the control was calculated.

[3] = system: 786-0; assay: NCI in vitro anticancer screen (SRB); type: cell-based, human; details: Renal, 48 h exposure
Method: as §1

[4] = system: MOLT-4; assay: NCI in vitro anticancer screen (SRB); type: cell-based, human; details: Leukemia, 48 h exposure
Method: as §1

[5] = system: HL-60(TB); assay: NCI in vitro anticancer screen (SRB); type: cell-based, human; details: Leukemia, 48 h exposure
Method: as §1

[6] = system: T-47D; assay: NCI in vitro anticancer screen (SRB); type: cell-based, human; details: Breast, 48 h exposure
Method: as §1

[7] = system: SW-620; assay: NCI in vitro anticancer screen (SRB); type: cell-based, human; details: Colon, 48 h exposure
Method: as §1

[8] = system: RPMI-8226; assay: NCI in vitro anticancer screen (SRB); type: cell-based, human; details: Leukemia, 48 h exposure
Method: as §1

[9] = system: IGROV1; assay: NCI in vitro anticancer screen (SRB); type: cell-based, human; details: Ovarian, 48 h exposure
Method: as §1

[10] = system: NCI-H23; assay: NCI in vitro anticancer screen (SRB); type: cell-based, human; details: Non-small cell lung, 48 h exposure
Method: as §1

[11] = system: NCI-H522; assay: NCI in vitro anticancer screen (SRB); type: cell-based, human; details: Non-small cell lung, 48 h exposure
Method: as §1

[12] = system: NCI-H460; assay: NCI in vitro anticancer screen (SRB); type: cell-based, human; details: Non-small cell lung, 48 h exposure
Method: as §1

[13] = system: MALME-3M; assay: NCI in vitro anticancer screen (SRB); type: cell-based, human; details: Melanoma, 48 h exposure
Method: as §1

[14] = system: HCT-116; assay: NCI in vitro anticancer screen (SRB); type: cell-based, human; details: Colon, 48 h exposure
Method: as §1

[15] = system: CAKI-1; assay: NCI in vitro anticancer screen (SRB); type: cell-based, human; details: Renal, 48 h exposure
Method: as §1

[16] = system: MCF7; assay: NCI in vitro anticancer screen (SRB); type: cell-based, human; details: Breast, 48 h exposure
Method: as §1

[17] = system: SK-MEL-2; assay: NCI in vitro anticancer screen (SRB); type: cell-based, human; details: Melanoma, 48 h exposure
Method: as §1

[18] = system: OVCAR-3; assay: NCI in vitro anticancer screen (SRB); type: cell-based, human; details: Ovarian, 48 h exposure
Method: as §1

[19] = system: BT-549; assay: NCI in vitro anticancer screen (SRB); type: cell-based, human; details: Breast, 48 h exposure
Method: as §1

[20] = system: SNB-19; assay: NCI in vitro anticancer screen (SRB); type: cell-based, human; details: CNS, 48 h exposure
Method: as §1

[21] = system: SNB-75; assay: NCI in vitro anticancer screen (SRB); type: cell-based, human; details: CNS, 48 h exposure
Method: as §1

[22] = system: SF-268; assay: NCI in vitro anticancer screen (SRB); type: cell-based, human; details: CNS, 48 h exposure
Method: as §1

[23] = system: PC-3; assay: NCI in vitro anticancer screen (SRB); type: cell-based, human; details: Prostate, 48 h exposure
Method: as §1

[24] = system: HOP-92; assay: NCI in vitro anticancer screen (SRB); type: cell-based, human; details: Non-small cell lung, 48 h exposure
Method: as §1

[25] = system: HOP-62; assay: NCI in vitro anticancer screen (SRB); type: cell-based, human; details: Non-small cell lung, 48 h exposure
Method: as §1

[26] = system: LOX IMVI; assay: NCI in vitro anticancer screen (SRB); type: cell-based, human; details: Melanoma, 48 h exposure
Method: as §1

[27] = system: MDA-MB-435; assay: NCI in vitro anticancer screen (SRB); type: cell-based, human; details: Breast, 48 h exposure
Method: as §1

[28] = system: CCRF-CEM; assay: NCI in vitro anticancer screen (SRB); type: cell-based, human; details: Leukemia, 48 h exposure
Method: as §1

[29] = system: SN12C; assay: NCI in vitro anticancer screen (SRB); type: cell-based, human; details: Renal, 48 h exposure
Method: as §1

[30] = system: SK-MEL-28; assay: NCI in vitro anticancer screen (SRB); type: cell-based, human; details: Melanoma, 48 h exposure
Method: as §1

[31] = system: DU-145; assay: NCI in vitro anticancer screen (SRB); type: cell-based, human; details: Prostate, 48 h exposure
Method: as §1

[32] = system: U251; assay: NCI in vitro anticancer screen (SRB); type: cell-based, human; details: CNS, 48 h exposure
Method: as §1

[33] = system: UACC-62; assay: NCI in vitro anticancer screen (SRB); type: cell-based, human; details: Melanoma, 48 h exposure
Method: as §1

[34] = system: MDA-MB-468; assay: NCI in vitro anticancer screen (SRB); type: cell-based, human; details: Breast, 48 h exposure
Method: as §1

[35] = system: K-562; assay: NCI in vitro anticancer screen (SRB); type: cell-based, human; details: Leukemia, 48 h exposure
Method: as §1

[36] = system: COLO 205; assay: NCI in vitro anticancer screen (SRB); type: cell-based, human; details: Colon, 48 h exposure
Method: as §1

[37] = system: A498; assay: NCI in vitro anticancer screen (SRB); type: cell-based, human; details: Renal, 48 h exposure
Method: as §1

[38] = system: M14; assay: NCI in vitro anticancer screen (SRB); type: cell-based, human; details: Melanoma, 48 h exposure
Method: as §1

[39] = system: SF-539; assay: NCI in vitro anticancer screen (SRB); type: cell-based, human; details: CNS, 48 h exposure
Method: as §1

[40] = system: SR; assay: NCI in vitro anticancer screen (SRB); type: cell-based, human; details: Leukemia, 48 h exposure
Method: as §1

[41] = system: SK-OV-3; assay: NCI in vitro anticancer screen (SRB); type: cell-based, human; details: Ovarian, 48 h exposure
Method: as §1

[42] = system: HS 578T; assay: NCI in vitro anticancer screen (SRB); type: cell-based, human; details: Breast, 48 h exposure
Method: as §1

[43] = system: SK-MEL-5; assay: NCI in vitro anticancer screen (SRB); type: cell-based, human; details: Melanoma, 48 h exposure
Method: as §1

[44] = human tumor cell lines, 48 h drug exposure, SRB

Molecule: 1,1′-{[(bisbutane-1,N-diyl)piperazine]dioxy}bis[(11aS)-2-fluoro-7-methoxy-1,2,3,11a-tetrahydro-5H-pyrrolo[2,1-c][1,4]benzodiazepine-5-one] [IXb]
- ΔTm after incubation at 37° C. for 0 h [1]: 38.0 °C

Molecule: 1,1′-{[(bispentane-1,N-diyl)piperazine]dioxy}bis[(11aS)-2-fluoro-7-methoxy-1,2,3,11a-tetrahydro-5H-pyrrolo[2,1-c][1,4]benzodiazepine-5-one] [IXc]
- ΔTm after incubation at 37° C. for 0 h [1]: 37.0 °C

Molecule: COc1cc2c(cc1OCCCN1CCN(CCCOc3cc4c(cc3OC)C(=O)N3CC(F)C[C@H]3C=N4)CC1)N=C[C@@H]1CC(F)CN1C2=O (stereo partly drawn) [Compound IXa, 1,1′-{[(bispropane-1,N-diyl)piperazine]dioxy}bis[(11aS)-2-fluoro-7-methoxy-1,2,3,11a-tetrahydro-5H-pyrrolo[2,1-c][1,4]benzodiazepine-5-one]]
- ΔTm after incubation at 37° C. for 0 h [1]: 37.0 °C
- GI50 ([2]; against fifty nine cell lines in nine cell panels): < 95 nM
- Log10 GI50 mean graph midpoint (MG_MID) [2, 44]: −7.28
- Log10 LC50 mean graph midpoint (MG_MID) [2, 44]: −4.65
- Log10 TGI mean graph midpoint (MG_MID) [2, 44]: −6.12
- GI50 [3]: 39 nM
- GI50 [4]: 10 nM
- GI50 [5]: 10 nM
- GI50 [6]: 13 nM
- GI50 [7]: 56 nM
- GI50 [8]: 22 nM
- GI50 [9]: 59 nM
- GI50 [10]: 32 nM
- GI50 [11]: 10 nM
- GI50 [12]: 10 nM
- GI50 [13]: 24 nM
- GI50 [14]: 28 nM
- GI50 [15]: 28 nM
- GI50 [16]: 10 nM
- GI50 [17]: 43 nM
- GI50 [18]: 48 nM
- GI50 [19]: 95 nM
- GI50 [20]: 28 nM
- GI50 [21]: 33 nM
- GI50 [22]: 11 nM
- GI50 [23]: 15 nM
- GI50 [24]: 96 nM
- GI50 [25]: 12 nM
- GI50 [26]: 17 nM
- GI50 [27]: 34 nM
- GI50 [28]: 10 nM
- GI50 [29]: 18 nM
- GI50 [30]: 31 nM
- GI50 ([30]; listed as IX a): 43 nM
- GI50 [31]: 47 nM
- GI50 [32]: 15 nM
- GI50 [33]: 26 nM
- GI50 [34]: 10 nM
- GI50 [35]: 15 nM
- GI50 [36]: 40 nM
- GI50 [37]: 66 nM
- GI50 [38]: 35 nM
- GI50 [39]: 11 nM
- GI50 [40]: 10 nM
- GI50 [41]: 70 nM
- GI50 [42]: 48 nM
- GI50 [43]: 31 nM

Molecule: COc1cc2c(cc1OCCCOc1cc3c(cc1OC)C(=O)N1CCC[C@H]1C=N3)N=C[C@@H]1CCCN1C2=O [DSB-120, reference compound]
- ΔTm after incubation at 37° C. for 0 h [1]: 10.2 °C
